Patent publication US11203633B2, “Polynucleotides encoding antibodies or antigen binding fragments thereof that bind pseudomonas perv” (priority 2011, dated 2021)

Columns and labels:
[1] = system: luminescent P. aeruginosa serogroup 05 strain (PAO1.lux); assay: Opsonophagocytic killing (OPK) assay, PAO1.lux; assay type: cell-based, Pseudomonas aeruginosa
Description: (§1) This example describes the evaluation of prioritized human IgG1 antibodies to promote OPK of P. aeruginosa. […] OPK assays were performed as described in (DiGiandomenico, A., et al., Infect Immun 72, 7012-7021 (2004)), with modifications. Briefly, assays were performed in 96-well plates using 0.025 ml of each OPK component; P. aeruginosa strains; diluted baby rabbit serum; differentiated HL-60 cells; and monoclonal antibody. In some OPK assays, luminescent P. aeruginosa strains, which were constructed as described (Choi, K. H., et al., Nat Methods 2, 443-448 (2005)), were used. Luminescent OPK assays were performed as described above but with determination of relative luciferase units (RLUs) using a Perkin Elmer ENVISION Multilabel plate reader (Perkin Elmer).

[2] = system: luminescent P. aeruginosa serogroup 011 strain (9882-80.lux); assay: OPK assay, 9882-80.lux; assay type: cell-based, Pseudomonas aeruginosa; conditions: strain 9882-80 (O11); FIG. 2B
Description: as §1
The ability of the WapR-004 and Cam-003 antibodies to mediate OPK activity against another clinically relevant 0-antigen serotype strain, 9882-80.lux, was evaluated.

[3] = system: P. aeruginosa strains (PAO1, 33356, 6294, 6077, 6206, PA103A); assay: Acute pneumonia model in mice, survival; assay type: in vivo, Pseudomonas aeruginosa; conditions: for protection from challenge: 45 and 15 mg/kg; for survival compared to controls: 45, 15, 5 mg/kg 24 hours before infection
Description: (§2) Antibodies or PBS were administered 24 hours before infection in each model. P. aeruginosa acute pneumonia, keratitis, and thermal injury infection models were performed as described (DiGiandomenico, A., et al., Proc Natl Acad Sci USA 104, 4624-4629 (2007)), with modifications. In the acute pneumonia model, BALB/c mice (The Jackson Laboratory) were infected with P. aeruginosa strains suspended in a 0.05 ml inoculum. In the thermal injury model, CF-1 mice (Charles River) received a 10% total body surface area burn with a metal brand heated to 92° C. for 10 seconds. Animals were infected subcutaneously with P. aeruginosa strain 6077 at the indicated dose. For organ burden experiments, acute pneumonia was induced in mice followed by harvesting of lungs, spleens, and kidneys 24 hours post-infection for determination of CFU.
The in vivo effect of administration of an anti-PcrV antibodies was studied in mice using an acute pneumonia model. Groups of mice were treated with either increasing concentrations of the V2L2 antibody, a positive control anti-PcrV antibody (mAb166), or a negative control (R347), as shown in FIG. 13 (A-B). Groups of mice were also treated with either increasing concentrations of the V2L2 antibody, the PcrV antibody PcrV-02, or a negative control (R347), as shown in FIG. 13 (C-D). Twenty-four hours after treatment, all mice were infected with 5×10^7 CFU (C) Pseudomonas aeruginosa 6294 (06) or (D) PA103A (O11).
Groups of mice were treated with either increasing concentrations of the 11A6, 3G5 or V2L7, the same concentrations of 29D2, 1F3, 1E6, V2L2, LE10, SH3, 4A8, 2H3, or 21F1, increasing concentrations of the 29D2, increasing concentrations of the V2L2, the PcrV antibody PcrV-02, or a negative control (R347), as shown in FIG. 13 (E-H). Mice were injected intraperitoneally (IP) with mAbs 24 hours prior to intranasal infection with Pseudomonas strain 6077 (1×10^6 CFU/animal).

[4] = system: P. aeruginosa strain 6077 (O11-cytotoxic); assay: Corneal infection (ocular keratitis) model in mice; assay type: in vivo, Pseudomonas aeruginosa; conditions: C3H/HeN mice; IP, 16 hours prior to infection with 6077 1×10^6 CFU; graded at 48 h; FIG. 8H
Description: as §2
Cam-003 and WapR-004 efficacy was next evaluated in a P. aeruginosa corneal infection model which emphasizes the pathogens ability to attach and colonize damaged tissue. […] FIG. 8 (H): The activity of anti-Psl and anti-PcrV monoclonal antibodies V2L2 was tested in a P. aeruginosa mouse ocular keratitis model. […]

[5] = system: P. aeruginosa strains 6077, 6206, 6294; assay: Thermal injury model in mice, survival; assay type: in vivo, Pseudomonas aeruginosa; conditions: 6077 2×10^5 CFU, FIG. 8E
Description: as §2
Survival effect of the Bs4-GLO bispecific antibody was evaluated in a P. aeruginosa thermal injury model against different P. aeruginosa strains. […] Animals were treated with Bs4-GLO or […] to induction of thermal injury and subcutaneous infection with P. aeruginosa strain (A) 6077 (O11-ExoU^+) or (B) 6206 (O11-ExoU^+) or (C) 6294 (06) directly under the wound.
(A) Animals were treated with Bs4-GLO or R347 (A) 4h hours or (B) 12 hours after induction of thermal injury and subcutaneous infection with P. aeruginosa strain 6077 (O11-ExoU^+) directly under the wound.

[6] = system: P. aeruginosa strain 6077 (O11-cytotoxic); assay: Corneal infection (ocular keratitis) model in mice; assay type: in vivo, Pseudomonas aeruginosa

Cam-003: anti-Psl human IgG1 monoclonal antibody; VH SEQ ID NO:1, VL SEQ ID NO:2
OPK EC50 ([1]; FIG. 9A, unit inferred): 0.06 µg/mL | OPK activity (killing of PAO1.lux) ([1]; purified human IgG1 mAbs from phage panning, FIG. 2A): superior OPK activity | OPK activity [2]: OPK activity extends to strain 9882-80 (O11) | survival vs. R347, Log-rank test P ([3]; 6077 1×10^6 CFU, 5 mg/kg, FIG. 6D): 0.0001 | survival vs. R347, Log-rank test P ([3]; 6294 7×10^6 CFU, 5 mg/kg, FIG. 6C): 0.0212 | survival vs. R347, Log-rank test P ([3]; 6294 7×10^6 CFU, 15 mg/kg, FIG. 6C): 0.0019 | survival vs. R347, Log-rank test P ([3]; 6294 7×10^6 CFU, 45 mg/kg, FIG. 6C): 0.0007 | survival vs. R347, Log-rank test P ([3]; 33356 3×10^7 CFU, 5 mg/kg, FIG. 6B): 0.0373 | survival vs. R347, Log-rank test P ([3]; 33356 3×10^7 CFU, 15 mg/kg, FIG. 6B): 0.0012 | survival vs. R347, Log-rank test P ([3]; 33356 3×10^7 CFU, 45 mg/kg, FIG. 6B): 0.0012 | survival vs. R347, Log-rank test P ([3]; PAO1 1.6×10^7 CFU, 5 mg/kg, FIG. 6A): 0.0033 | survival vs. R347, Log-rank test P ([3]; PAO1 1.6×10^7 CFU, 15 mg/kg, FIG. 6A): 0.0003 | protection from challenge ([3]; cytotoxic strain 6077, FIG. 6D): complete protection | survival ([3]; strain 6077, 5 mg/kg, FIG. 6D): 90% | survival compared to controls ([3]; strain 6294, FIG. 6C): significant concentration-dependent survival | survival ([3]; strain 33356, 5 mg/kg, FIG. 6B): 80% | protection from challenge ([3]; strain 33356, FIG. 6B): complete protection | survival compared to controls ([3]; strain PAO1, FIG. 6A): significant concentration-dependent survival | corneal pathology and CFU in total eye homogenates vs R347 [4]: significantly less pathology and reduced bacterial colony forming units (CFU) in total eye homogenates | survival R347 vs. Cam-003, log-rank P ([5]; 5 mg/kg): 0.0017 | survival R347 vs. Cam-003, log-rank P ([5]; 15 mg/kg): 0.0094 | protection compared to the antibody-treated control ([5]; CF-1 mice): significant protection at 15 and 5 mg/kg | difference vs control IgG1 (pathology scores / viable CFU), Mann-Whitney U-test P ([6]; 15 mg/kg, FIG. 8C): 0.0003 | difference vs control IgG1 (pathology scores / viable CFU), Mann-Whitney U-test P ([6]; 15 mg/kg, FIG. 8D): 0.0015 | difference vs control IgG1 (pathology scores / viable CFU), Mann-Whitney U-test P ([6]; 45 mg/kg, FIG. 8A): 0.0001 | corneal pathology and bacterial counts vs negative control-treated animals ([6]; 6077, antibody 24 hours prior to infection, FIG. 8A-D, F-G): significantly less pathology and reduced bacterial counts in total eye homogenates
